Measurements taken from patent US11046651B2, “Piperazine substituted azapine derivatives and uses thereof” (Alairion, Inc., priority 2019, dated 2021).

Columns and labels:
5-HT2C = 5-HT2C (Homo sapiens (Human), UniProt P28335); assay: 5-HT2C binding assay ([3H]-Mesulergine, HEK293 membranes); settings: numeric values
Experimental: 5-HT2C Binding Assay Protocol
The testing compounds were diluted with DMSO, starting at 2 mM, with 8-points and 5-fold serial dilutions.
1 μL of a compound of the present disclosure the reference compound (Table J) was transferred to an assay plate. […] 1 μL of DMSO was transferred to an assay plate according to the plate map for total binding (High control: HC).
(§1) Unifilter-96 GF/C filter plates were soaked with 50 μL of 0.3% PEI per well for about 0.5 hours at room temperature. When the binding assays were complete, the reaction mixture was filtered through the GF/C filter plates using Perkin Elmer Filtermate Harvester, and each plate was washed 4 times with cold wash buffer. The filter plates were dried for 1 hour at 50° C. After drying, the bottom of the filter plate wells were sealed using Perkin Elmer Unifilter-96 backing seal tape. 50 μL of Perkin Elmer Microscint 20 cocktail was added. The top of the filter plates were sealed with Perkin Elmer TopSeal-A sealing film.
^3H trapped on filters were counted using Perkin Elmer MicroBeta2 Reader. Inhibition constants were calculated using the following equation:
[formula] The data was analyzed using Prism 5. The model used was “log(inhibitor) vs. response—Variable slope” to fit the data and calculate IC50. The IC50 was then converted to Ki using the following equation: Ki=IC50/(1+L/Kd), wherein L is the radioligand concentration in the reaction system; Kd is the affinity of radioligand to the receptor.

D2 = D2 (Homo sapiens (Human), UniProt P14416); assay: D2 binding assay ([3H] 7-OH-DPAT, HEK293 D2L membranes); settings: numeric values
Sequence of D2 (P14416 whole entry): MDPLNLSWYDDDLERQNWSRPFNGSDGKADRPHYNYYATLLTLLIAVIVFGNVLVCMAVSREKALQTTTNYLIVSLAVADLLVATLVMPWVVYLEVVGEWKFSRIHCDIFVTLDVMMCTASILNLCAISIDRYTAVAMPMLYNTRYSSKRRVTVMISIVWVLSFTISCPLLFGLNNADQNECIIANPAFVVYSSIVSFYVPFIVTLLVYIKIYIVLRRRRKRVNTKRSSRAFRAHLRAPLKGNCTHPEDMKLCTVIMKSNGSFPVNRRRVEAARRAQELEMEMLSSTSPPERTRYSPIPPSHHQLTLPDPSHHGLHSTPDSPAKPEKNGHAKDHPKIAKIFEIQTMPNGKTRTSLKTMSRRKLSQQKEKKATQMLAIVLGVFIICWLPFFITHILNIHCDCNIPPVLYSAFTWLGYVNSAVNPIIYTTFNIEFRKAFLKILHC
Experimental: D2 Binding Assay Protocol
The testing compounds were diluted with DMSO, starting at 2 mM, with 8-points and 5-fold serial dilutions. droperidol was diluted with DMSO, starting at 0.2 mM, with 8-points and 4-fold serial dilutions.
1 μL of a compound of the present disclosure and the reference compound (Table O) was transferred to an assay plate. 1 μL of droperidol was transferred to an assay plate according to the plate map for nonspecific binding (Low control: LC). 1 μL of DMSO was transferred to an assay plate according to the plate map for total binding (High control: HC). Following a plate map, 100 μL of the membrane stock solutions and radio ligand were added into the plate. The plates were sealed and shaken with 300 rpm.
as §1, with “the GF/B” for “the GF/C”
^3H trapped on filters were counted using Perkin Elmer MicroBeta2 Reader. Inhibition constants were calculated using the following equation: […]
The data was analyzed using Prism 5. The model used was “log(inhibitor) vs. response—Variable slope” to fit the data and calculate IC50. The IC50 was then converted to Ki using the following equation: Ki=IC50/(1+L/Kd), wherein L is the radioligand concentration in the reaction system; Kd is the affinity of radioligand to the receptor. As shown in Table Q Compound No. 7 has a lower affinity for D2 when compared to Compounds A-2, A-3, A-4, and A-5.

Sequence of 5-HT2C (P28335 33-458): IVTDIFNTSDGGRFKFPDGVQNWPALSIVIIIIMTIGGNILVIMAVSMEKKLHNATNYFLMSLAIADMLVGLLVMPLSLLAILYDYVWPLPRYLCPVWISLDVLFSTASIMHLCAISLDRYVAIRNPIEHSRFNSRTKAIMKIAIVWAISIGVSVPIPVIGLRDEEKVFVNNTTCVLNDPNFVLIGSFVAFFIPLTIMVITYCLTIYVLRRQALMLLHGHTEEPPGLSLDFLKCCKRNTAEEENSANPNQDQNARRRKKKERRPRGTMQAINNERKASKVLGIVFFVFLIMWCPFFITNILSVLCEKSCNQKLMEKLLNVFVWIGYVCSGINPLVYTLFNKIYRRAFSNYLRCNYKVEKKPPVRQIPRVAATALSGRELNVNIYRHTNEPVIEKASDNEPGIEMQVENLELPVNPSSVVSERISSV

A Ki (5-HT2C) of 0.68 µM and a Ki (D2) of 2.87 µM were found for `CC(C)(CN1CCN(C2=Nc3ccccc3Oc3ccccc32)CC1)C(=O)O` [A-5, 3-(4-(dibenzo[b,f][1,4]oxazepin-11-yl)piperazin-1-yl)-2,2-dimethylpropanoic acid, reference compound] in this work.
